Measurements reported in US20100257640A1, “METHOD FOR GROWING SUGARCANE” (SYNGENTA CROP PROTECTION, INC., priority 2007, published 2010).

Key:
[1] = tested on: sugar cane Variety RB 86-7515; experiment: Greenhouse pot test: effect of formulated clothianidin on vigour; assay type: in vivo; details: carretels; result in words
Method: Greenhouse test with sugarcane buds growing in pots were conducted to study the effect of clothianidin equivalent to an application rate of 200 g ai. ha^−1 on “vigour”, evaluating tillers, plant height, leaf width and culm diameter. This trial was conducted on sugar cane Variety RB 86-7515.
1) carretel with one bud treated with clothianidin (200 g ai. ha^−1) 2) carretel with one bud treated with clothianidin (200 g ai. ha^−1)+15% v/v of polymer 3) stalk with 3 buds untreated 4) carretel with one bud untreated+15% v/v of polymer 5) carretel with one bud untreated 6) stalk with 3 buds treated with clothianidin (200 g ai. ha^−1).
Twenty 1 L pots were filled with 16 L of clay soil, 1.6 L of sand and 8 g of nitrogen, 28 g of phosphorus (P2O5) and 16 g of potassium (K2O). Six carretels of 4 cm length with one bud were planted in each pot (treatments 1, 2, 4 and 5). Two stalks with three buds were planted in each control pot (treatments 3 and 6) to simulate conventional planting. A layer of 3 cm of soil was used to cover the carretels. The carretels of treatments 1 and 2 were treated with 200 g ai.ha^−1 of clothianidin, by dipping the carretels in a slurry for 3 min. The stalks were treated simulating a furrow application at 100 L.ha^−1 of slurry. The pots were maintained with adequate moisture during the test. […]

Variety RB 86-7515 = experiment: Greenhouse pot test: effect of formulated thiamethoxam on vigour; assay type: in vivo, sugarcane
Method: This trial was conducted on Variety RB 86-7515.

[2] = tested on: sugar cane Variety RB 86-7515; experiment: Greenhouse pot test: effect of formulated abamectin on vigour (tillers, plant height, leaf width, culm diameter); assay type: in vivo
Method: Greenhouse test with sugarcane buds growing in pots were conducted to study the effect of formulated abamectin regarding “vigour”, tillers, plant height, leaf width and culm diameter on sugar cane Variety RB 86-7515.
1) carretel with one bud treated with abamectin 2) carretel with one bud treated with abamectin+15% v/v of polymer 3) stalk with 3 buds untreated 4) carretel with one bud untreated 5) carretel with one bud untreated+15% v/v of polymer 6) stalk with 3 buds treated with abamectin.
Twenty 1 L pots were filled with 16 L of clay soil, 1.6 L of sand and 8 g of nitrogen, 28 g of phosphorus (P2O5) and 16 g of potassium (K2O). Six carretels of 4 cm length with only one bud were planted in each pot (treatments 1, 2, 4 and 5). Two stalks with three buds were planted in each control pot (treatments 3 and 6) to simulate conventional planting. A layer of 3 cm of soil was used to cover the carretels. The carretels of treatments 1, 2 were treated with 200 ml/ha of abamectin, by dipping the carretels in the slurry for 3 min, based on the uptake capacity of carretels. The stalks were treated simulating a furrow application at 100 L.ha^−1 of slurry. Experimental design adopted was randomized complete block with four replications. The pots were maintained with adequate moisture during the test. […]

[3] = tested on: sugar cane Variety RB 86-7515; experiment: Greenhouse pot test: effect of formulated fipronil on vigour; assay type: in vivo; details: result in words
Method: Greenhouse test with sugarcane buds growing in pots were conducted to study the effect of fipronil equivalent to an application rate of 200 g. ha^−1 on “vigour”, evaluating tillers, plant height, leaf width and culm diameter on sugar cane Variety RB 86-7515.
Twenty 1 L pots were filled with 16 L of clay soil, 1.6 L of sand and 8 g of nitrogen, 28 g of phosphorus (P2O5) and 16 g of potassium (K2O). Six carretels of 4 cm length with one bud were planted in each pot (treatments 1, 2, 4 and 5). Two stalks with three buds were planted in each control pot (treatments 3 and 6) to simulate conventional planting. A layer of 3 cm of soil was used to cover the carretels. The carretels of treatments 1 and 2 were treated with 200 g ai.ha^−1 of fipronil, by dipping the carretels in the slurry for 3 min, based on the uptake capacity of carretels. The stalks were treated simulating a furrow application at 100 L.ha^−1 of slurry. Experimental design adopted was randomized complete block with four replications. The pots were maintained with adequate moisture during the test. Evaluations of: plant height, leaf width, culm diameter and number of tillers were done at 20, 30 and 42 days after planting.

[4] = tested on: sugar cane Variety RB 86 7515; experiment: Greenhouse pot test: effect of formulated imidacloprid on vigour; assay type: in vivo; details: result in words
From the text: 1) carretel with one bud treated with Imidacloprid (1200 g. ha^−1) 2) carretel with one bud treated with Imidacloprid (1200 g. ha^−1)+15% v/v of polymer 3) stalk with 3 buds untreated 4) carretel with one bud untreated 5) carretel with one bud untreated+15% v/v of polymer 6) stalk with 3 buds treated with Imidacloprid (1200 g. ha^−1).
Twenty 1 L pots were filled with 16 L of clay soil, 1.6 L of sand and 8 g of nitrogen, 28 g of phosphorus (P2O5) and 16 g of potassium (K2O). Six carretels of 4 cm length with one bud were planted in each pot (treatments 1, 2, 4 and 5). Two stalks with three buds were planted in each control pot (treatments 3 and 6) to simulate conventional planting. A layer of 3 cm of soil was used to cover the carretels. The carretels of treatments 1 and 2 were treated with 1200 g ai.ha^−1 of imidacloprid, by dipping the carretels in the slurry for 3 min, based on the uptake capacity of carretels. The stalks were treated simulating a furrow application at 100 L.ha^−1 of slurry. Experimental design adopted was randomized complete block with four replications. The pots were maintained with adequate moisture during the test. Evaluations of: plant height, leaf width, culm diameter and number of tillers were done at 20, 30 and 42 days after planting.

CN/C(=N\[N+](=O)[O-])NCc1cnc(Cl)s1 [Clothianidin, clothianidin]
number of tillers in comparison with the corresponding control (untreated, one-bud) [1]: increased number of tillers | plant height in comparison with the corresponding control (untreated, one-bud) [1]: slight reduction in the plant height

CN1COCN(Cc2cnc(Cl)s2)/C1=N\[N+](=O)[O-] [Thiamethoxam, thiamethoxam]
increase in "quality" (Variety RB 86-7515; against the other treatments, not apparent from the listed parameters): greater than the other treatments | number of tillers in comparison with the corresponding controls (Variety RB 86-7515; carretels, result in words): increased number of tillers | plant height in comparison with the corresponding controls (Variety RB 86-7515; carretels, result in words): reduced plant height

abamectin
Tillers ([2]; carretel with one bud, dipped 3 min, 100 g ai/ha (Untreated + Polymer 0.0), polymer 15% v/v where named, 42 days after planting): 14 number | number of tillers in comparison with the control ([2]; result in words): increase in the number of tillers in comparison with the control

N#Cc1nn(-c2c(Cl)cc(C(F)(F)F)cc2Cl)c(N)c1[S+]([O-])C(F)(F)F (stereo not shown) [Fipronil, fipronil]
height of the resultant plants in comparison with the control [3]: decreased the height of the resultant plants in comparison with the control | number of tillers in comparison with the control [3]: increased the number of tillers present on the plants

O=[N+]([O-])NC1=NCCN1Cc1ccc(Cl)nc1 [Imidacloprid, imidacloprid]
number of tillers in comparison with the control [4]: increase in the number of tillers in comparison with the control
